Data reported in patent publication US7312358B2, “Pharmaceutically active sulfanilide derivatives” (Laboratoires Serono SA, priority 2000, dated 2007).

Tested on: oxytocin-induced uterine contractions in the rat
Test: In vivo model for inhibition of uterine contractions
Conditions: anaesthetised DES-treated non-pregnant female rat, route not given
Experimental: f) In Vivo Model for Inhibition of Uterine Contractions
The assay intends to show the biological effect of tested compounds in an in vivo model of preterm labor, premature birth.
Non-pregnant Charles River CD(SD) BR female rats (9-10 weeks old, 200-250 g) were treated at 18 and 24 hours before the experiment with 250 μg/kg, i.p. diethylstilbestrol (DES). For the assay, the animal was anaesthetised by urethane (1.75 g/kg, i.p.) and placed on an homeothennic operating table. The trachea was isolated and cannulated with a suitable polyethylene (PE) tubing. A midline incision at the hypogastrium level was made and one uterine horn exposed, its cephalic end cannulated with a PE240 tubing and, after filling the internal cavity with 0.2 ml of sterile physiological saline, connected to a “Gemini” amplifying/recording system via a P231D Gould Statham pressure transducer. For the i.v. route of administration of the test compounds, one jugular vein was isolated and cannulated with a PE60 tubing connected to a butterfly needle to allow the administration by a dispensing syringe. In the case of intraduodenal administration of the test compounds, the duodenum was isolated and similarly cannulated through a small incision in its wall. One carotid artery was also isolated and cannulated with PE60 catheter and connected to a suitable syringe for blood sample collection (see below). After a stabilization period, the same dose of oxytocin was repeatedly injected intravenously at 30-min intervals. […] Further injections of the same dose of oxytocin were then made for a suitable time after treatment to assess inhibitory effects of the compounds under study. The contractile response of the uterus to oxytocin was quantified by measuring the intra-uterine pressure and the number of contractions. The effect of the reference and test compounds were evaluated by comparing pre- and post-treatment pressure values. In addition, at 2, 30, 90 and 210 minutes after test compound administration, a 0.5-ml blood sample was withdrawn from the cannulated carotid artery of each experimental animal. Plasma was obtained by standard laboratory procedure and the resulting samples were stored at −20° C.
The activities of the sulfanilide derivatives claimed in the Formula I were assessed using the above described in vivo biological assay. The values refer to the capacity of the example compound according to Formula I to effectively antagonize oxytocin-induced uterine contractions in the rat.

In the case of `CCOc1ccc(S(=O)(=O)N(CC(=O)N/N=C2/C(=O)Nc3ccccc32)c2ccc(C)cc2)cc1` [Example 5, 4-ethoxy-N-(4-methylphenyl)-N-{2-oxo-2-[2-(2-oxo-1,2-dihydro-3H-indol-3-ylidene)hydrazino]ethyl}benzenesulfonamide], the “% Reduction of Uterine Contraction” value (dose 5 mg/kg) is reported as 23.9 ± 4.0%, the “% Reduction of Uterine Contraction” value (dose 7.5 mg/kg) is reported as 40.3 ± 4.2% and the “% Reduction of Uterine Contraction” value (dose 10 mg/kg) is reported as 62.6 ± 5.0%.
